Measurements: patent US12509444B2, “Compounds and methods for CD73 modulation and indications therefor” (Plexxikon Inc., priority 2019, dated 2025)
pIC50: −log10 of the molar value.

How the values were obtained:
[1] = target: T1, Human CD73 (amino acid residues 27-549) (Homo sapiens, UniProt P21589); experiment: CD73 enzymatic assay (luciferase-based indirect assay, CellTiter-Glo); format: biochemical; conditions: 0.4 nM CD73, 150 μM AMP, 1 hour at room temperature
T1 construct: Human CD73 (amino acid residues 27-549); His tag (N); made in house; host or cells: E. coli
T1 sequence (P21589 27-549): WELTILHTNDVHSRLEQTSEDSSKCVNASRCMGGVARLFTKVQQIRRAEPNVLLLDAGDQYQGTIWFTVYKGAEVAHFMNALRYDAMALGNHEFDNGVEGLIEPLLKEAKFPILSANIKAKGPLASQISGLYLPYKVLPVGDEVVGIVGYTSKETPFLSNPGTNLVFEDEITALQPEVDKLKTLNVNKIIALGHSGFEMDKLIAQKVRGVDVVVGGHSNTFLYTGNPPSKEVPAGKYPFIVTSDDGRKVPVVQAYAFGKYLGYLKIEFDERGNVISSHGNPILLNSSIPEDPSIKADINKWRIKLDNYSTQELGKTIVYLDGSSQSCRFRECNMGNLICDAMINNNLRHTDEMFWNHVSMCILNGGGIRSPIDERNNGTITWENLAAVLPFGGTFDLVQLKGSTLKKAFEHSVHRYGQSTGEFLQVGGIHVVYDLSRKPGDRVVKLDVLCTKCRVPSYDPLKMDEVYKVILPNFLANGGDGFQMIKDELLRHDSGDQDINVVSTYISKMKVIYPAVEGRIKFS
How it was run: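 His-tagged human CD73 (27-549) from E. coli, 0.4 nM, with 150 μM AMP in 50 mM HEPES pH 7.4, 0.01% Tween 20; 1 h at room temperature. AMP remaining read by CellTiter-Glo 2.0 luminescence with 1 μM final ATP after 30 min. IC50 from nonlinear regression of % inhibition.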

human CD73 = target: T2, human CD73 (Homo sapiens, UniProt P21589); experiment: Inhibitor activity against CD73 in cell based assay (CD73 expressing CHO-K1 cells); conditions: CHO-K1 cells expressing human CD73, 150 μM AMP, 4 hours of incubation; read-out: CHO-K1 CELL VARIANT: CD73 IC50
T2 construct: expressed in transfected cells
T2 sequence (P21589 27-549): T1 sequence (P21589 27-549)
How it was run: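 Stably transfected CHO-K1 cells expressing human CD73 (1×10^4/well) incubated 4 h with compound (8-point 1:3 titration, top 10 μM final, 0.2% DMSO) and 150 μM AMP. Residual AMP in supernatant measured by CellTiter-Glo luminescence with 1 μM ATP after 30 min at room temperature; IC50 by nonlinear regression of percent inhibition vs high/low controls.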

pIC50 [1] | pIC50 (human CD73) | SMILES
5.00 to 9.00 | 5.00 to 9.00 | O=C(N[C@H]1CC[C@@H](NC2CCS(=O)(=O)CC2)CC1)O[C@@H]1CCN(c2cn[nH]c(=O)c2Cl)C1 [P-0489, (R)-1-(5-chloro-6-oxo-1,6-dihydropyridazin-4-yl)pyrrolidin-3-yl ((1s,4S)-4-((1,1-dioxidotetrahydro-2H-thiopyran-4-yl)amino)cyclohexyl)carbamate]
5.00 to 9.00 | 5.00 to 9.00 | O=C(NC1CCN(C(=O)Nc2ccc(F)cc2F)CC1)O[C@@H]1CCN(c2cn[nH]c(=O)c2Cl)C1 [P-0490, (R)-1-(5-chloro-6-oxo-1,6-dihydropyridazin-4-yl)pyrrolidin-3-yl (1-((2,4-difluorophenyl)carbamoyl)piperidin-4-yl)carbamate]
5.00 to 9.00 | 5.00 to 9.00 | O=C(NC1CCN(C(=O)Nc2cc(F)ccc2F)CC1)O[C@@H]1CCN(c2cn[nH]c(=O)c2Cl)C1 [P-0491, (R)-1-(5-chloro-6-oxo-1,6-dihydropyridazin-4-yl)pyrrolidin-3-yl (1-((2,5-difluorophenyl)carbamoyl)piperidin-4-yl)carbamate]
5.00 to 9.00 | 5.00 to 9.00 | O=C(NC1CCN(C(=O)Nc2ccc(OC(F)(F)F)cc2)CC1)O[C@@H]1CCN(c2cn[nH]c(=O)c2Cl)C1 [P-0492, (R)-1-(5-chloro-6-oxo-1,6-dihydropyridazin-4-yl)pyrrolidin-3-yl (1-((4-(trifluoromethoxy)phenyl)carbamoyl)piperidin-4-yl) carbamate]
5.00 to 9.00 | 5.00 to 9.00 | O=C(NC1CCN(C(=O)Nc2cccc(OC(F)F)c2)CC1)O[C@@H]1CCN(c2cn[nH]c(=O)c2Cl)C1 [P-0493, (R)-1-(5-chloro-6-oxo-1,6-dihydropyridazin-4-yl)pyrrolidin-3-yl (1-((3-(difluoromethoxy)phenyl)carbamoyl)piperidin-4-yl) carbamate]
5.00 to 9.00 | 5.00 to 9.00 | O=C(NC1CCN(C(=O)Nc2ccccc2Cl)CC1)O[C@@H]1CCN(c2cn[nH]c(=O)c2Cl)C1 [P-0494, (R)-1-(5-chloro-6-oxo-1,6-dihydropyridazin-4-yl)pyrrolidin-3-yl (1-((2-chlorophenyl)carbamoyl)piperidin-4-yl)carbamate]
5.00 to 9.00 | 5.00 to 9.00 | O=C(NC1CCN(C(=O)Nc2cc(Cl)cc(Cl)c2)CC1)O[C@@H]1CCN(c2cn[nH]c(=O)c2Cl)C1 [P-0495, (R)-1-(5-chloro-6-oxo-1,6-dihydropyridazin-4-yl)pyrrolidin-3-yl (1-((3,5-dichlorophenyl)carbamoyl)piperidin-4-yl)carbamate]
5.00 to 9.00 | 5.00 to 9.00 | N#Cc1c(N2CC[C@@H](OC(=O)NC3CCCC3)C2)cnn(CCO)c1=O [P-0496, (R)-1-(5-cyano-1-(2-hydroxyethyl)-6-oxo-1,6-dihydropyridazin-4-yl)pyrrolidin-3-yl cyclopentylcarbamate]
5.00 to 9.00 | 5.00 to 9.00 | N#Cc1c(N2CC[C@@H](OC(=O)NC3CCC(F)(F)CC3)C2)cnn(CCO)c1=O [P-0497, (R)-1-(5-cyano-1-(2-hydroxyethyl)-6-oxo-1,6-dihydropyridazin-4-yl)pyrrolidin-3-yl (4,4-difluorocyclohexyl)carbamate]
5.00 to 9.00 | 5.00 to 9.00 | Cc1onc(C(=O)N2CCC(NC(=O)O[C@@H]3CCN(c4cn[nH]c(=O)c4Cl)C3)CC2)c1C [P-0498, (R)-1-(5-chloro-6-oxo-1,6-dihydropyridazin-4-yl)pyrrolidin-3-yl (1-(4,5-dimethylisoxazole-3-carbonyl)piperidin-4-yl)carbamate]
5.00 to 9.00 | 5.00 to 9.00 | Cc1cc(C(=O)N2CCC(NC(=O)O[C@@H]3CCN(c4cn[nH]c(=O)c4Cl)C3)CC2)no1 [P-0499, (R)-1-(5-chloro-6-oxo-1,6-dihydropyridazin-4-yl)pyrrolidin-3-yl (1-(5-methylisoxazole-3-carbonyl)piperidin-4-yl)carbamate]
5.00 to 9.00 | 5.00 to 9.00 | Cc1nc(C)c(C(=O)N2CCC(NC(=O)O[C@@H]3CCN(c4cn[nH]c(=O)c4Cl)C3)CC2)o1 [P-0500, (R)-1-(5-chloro-6-oxo-1,6-dihydropyridazin-4-yl)pyrrolidin-3-yl (1-(2,4-dimethyloxazole-5-carbonyl)piperidin-4-yl)carbamate]
5.00 to 9.00 | 5.00 to 9.00 | Cc1nc(C(=O)N2CCC(NC(=O)O[C@@H]3CCN(c4cn[nH]c(=O)c4Cl)C3)CC2)cs1 [P-0501, (R)-1-(5-chloro-6-oxo-1,6-dihydropyridazin-4-yl)pyrrolidin-3-yl (1-(2-methylthiazole-4-carbonyl)piperidin-4-yl)carbamate]
5.00 to 9.00 | 5.00 to 9.00 | Cc1occc1C(=O)N1CCC(NC(=O)O[C@@H]2CCN(c3cn[nH]c(=O)c3Cl)C2)CC1 [P-0502, (R)-1-(5-chloro-6-oxo-1,6-dihydropyridazin-4-yl)pyrrolidin-3-yl (1-(2-methylfuran-3-carbonyl)piperidin-4-yl)carbamate]
5.00 to 9.00 | 5.00 to 9.00 | Cc1ncoc1C(=O)N1CCC(NC(=O)O[C@@H]2CCN(c3cn[nH]c(=O)c3Cl)C2)CC1 [P-0503, (R)-1-(5-chloro-6-oxo-1,6-dihydropyridazin-4-yl)pyrrolidin-3-yl (1-(4-methyloxazole-5-carbonyl)piperidin-4-yl)carbamate]
5.00 to 9.00 | 5.00 to 9.00 | Cc1noc(C)c1C(=O)N1CCC(NC(=O)O[C@@H]2CCN(c3cn[nH]c(=O)c3Cl)C2)CC1 [P-0504, (R)-1-(5-chloro-6-oxo-1,6-dihydropyridazin-4-yl)pyrrolidin-3-yl (1-(3,5-dimethylisoxazole-4-carbonyl)piperidin-4-yl)carbamate]
5.00 to 9.00 | 5.00 to 9.00 | Cc1nonc1C(=O)N1CCC(NC(=O)O[C@@H]2CCN(c3cn[nH]c(=O)c3Cl)C2)CC1 [P-0505, (R)-1-(5-chloro-6-oxo-1,6-dihydropyridazin-4-yl)pyrrolidin-3-yl (1-(4-methyl-1,2,5-oxadiazole-3-carbonyl)piperidin-4-yl)carbamate]
5.00 to 9.00 | 5.00 to 9.00 | O=C(NC1CCCC(F)(F)C1)O[C@H]1CN(c2cn[nH]c(=O)c2Cl)C[C@@H]1F (stereo partly drawn) [P-0506, (3S,4S)-1-(5-chloro-6-oxo-1,6-dihydropyridazin-4-yl)-4-fluoropyrrolidin-3-yl (3,3-difluorocyclohexyl)carbamate]
5.00 to 9.00 | 5.00 to 9.00 | O=C(NC1CCCC(F)(F)C1)O[C@H]1CN(c2cnn(CCO)c(=O)c2Cl)C[C@@H]1F (stereo partly drawn) [P-0507, (3S,4S)-1-(5-chloro-1-(2-hydroxyethyl)-6-oxo-1,6-dihydropyridazin-4-yl)-4-fluoropyrrolidin-3-yl (3,3-difluorocyclohexyl)carbamate]
5.00 to 9.00 | 5.00 to 9.00 | O=C(N[C@@H]1CCC[C@H]1CO)O[C@@H]1CCN(c2cn[nH]c(=O)c2Cl)C1 [P-0508, (R)-1-(5-chloro-6-oxo-1,6-dihydropyridazin-4-yl)pyrrolidin-3-yl ((1R,2R)-2-(hydroxymethyl)cyclopentyl) carbamate]
5.00 to 9.00 | 5.00 to 9.00 | O=C(N[C@@H]1CCC[C@H]1C(F)F)O[C@@H]1CCN(c2cn[nH]c(=O)c2Cl)C1 [P-0509, (R)-1-(5-chloro-6-oxo-1,6-dihydropyridazin-4-yl)pyrrolidin-3-yl ((1R,2R)-2-(difluoromethyl)cyclopentyl) carbamate]
5.00 to 9.00 | 5.00 to 9.00 | CC(F)(F)[C@@H]1CCC[C@H]1NC(=O)O[C@@H]1CCN(c2cn[nH]c(=O)c2Cl)C1 [P-0510, (R)-1-(5-chloro-6-oxo-1,6-dihydropyridazin-4-yl)pyrrolidin-3-yl ((1R,2R)-2-(1,1-difluoroethyl)cyclopentyl) carbamate]
5.00 to 9.00 | 5.00 to 9.00 | O=C(N[C@H]1CCCC(F)(F)C1)O[C@@H]1CCN(c2cn[nH]c(=O)c2Cl)C1 [P-0511, (R)-1-(5-chloro-6-oxo-1,6-dihydropyridazin-4-yl)pyrrolidin-3-yl ((S)-3,3-difluorocyclohexyl)carbamate]
5.00 to 9.00 | 5.00 to 9.00 | O=C(N[C@@H]1CCCC(F)(F)C1)O[C@@H]1CCN(c2cn[nH]c(=O)c2Cl)C1 [P-0512, (R)-1-(5-chloro-6-oxo-1,6-dihydropyridazin-4-yl)pyrrolidin-3-yl ((R)-3,3-difluorocyclohexyl)carbamate]
5.00 to 9.00 | 5.00 to 9.00 | O=C(N[C@@H]1CCCC(F)(F)C1)O[C@@H]1CCN(c2cnn(CCO)c(=O)c2Cl)C1 [P-0513, (R)-1-(5-chloro-1-(2-hydroxyethyl)-6-oxo-1,6-dihydropyridazin-4-yl)pyrrolidin-3-yl ((R)-3,3-difluorocyclohexyl)carbamate]
